According to ChEMBL document CHEMBL3044788, “α-(Substituted-phenoxyacetoxy)-α-heterocyclylmethylphosphonates: synthesis, herbicidal activity, inhibition on pyruvate dehydrogenase complex (PDHc), and application as postemergent herbicide against broadleaf weeds” (J Agric Food Chem, 2013):

Experiments:
[1] = tested on: Polygonum aviculare; experiment: Herbicidal activity against Polygonum aviculare assessed as relative growth inhibition at 1200 g/ha in greenhouse by post-emergence herbicidal activity assay; assay type: functional; details: read-out: GI
[2] = tested on: Beta vulgaris; experiment: Herbicidal activity against Beta vulgaris assessed as relative growth inhibition at 300 g/ha in greenhouse by post-emergence herbicidal activity assay; assay type: functional; details: read-out: GI
[3] = tested on: Zea mays; experiment: Herbicidal activity against Zea mays (maize) assessed as relative growth inhibition at 1200 g/ha in greenhouse by postemergence herbicidal activity assay; assay type: organism-based; details: in vivo, other
[4] = tested on: Amaranthus blitum; experiment: Herbicidal activity against Amaranthus blitum assessed as relative growth inhibition at 100 g/ha in greenhouse by post-emergence herbicidal activity assay; assay type: functional; details: read-out: GI
[5] = tested on: Oryza sativa; experiment: Herbicidal activity against Oryza sativa (rice) assessed as relative growth inhibition at 1200 g/ha in greenhouse by postemergence herbicidal activity assay; assay type: organism-based; details: in vivo, other
[6] = tested on: Amaranthus spinosus; experiment: Herbicidal activity against Amaranthus spinosus assessed as relative growth inhibition at 200 g/ha in greenhouse by postemergence herbicidal activity assay; assay type: functional; details: post-emergence, read-out: GI
[7] = tested on: Oryza sativa; experiment: Herbicidal activity against Oryza sativa (rice) assessed as relative growth inhibition at 600 g/ha in greenhouse by postemergence herbicidal activity assay; assay type: organism-based; details: in vivo, other
[8] = tested on: Amaranthus blitum; experiment: Herbicidal activity against Amaranthus blitum assessed as relative growth inhibition at 1200 g/ha in greenhouse by post-emergence herbicidal activity assay; assay type: functional; details: read-out: GI
[9] = tested on: Brassica rapa subsp. oleifera; experiment: Herbicidal activity against Brassica rapa subsp. oleifera assessed as inhibition of rape root growth; assay type: functional, organism-based
[10] = tested on: Amaranthus spinosus; experiment: Herbicidal activity against Amaranthus spinosus assessed as relative growth inhibition at 450 g/ha in greenhouse by postemergence herbicidal activity assay; assay type: functional; details: post-emergence, read-out: GI
[11] = tested on: Amaranthus spinosus; experiment: Herbicidal activity against Amaranthus spinosus assessed as relative growth inhibition at 1200 g/ha in greenhouse by postemergence herbicidal activity assay; assay type: functional; details: post-emergence, read-out: GI
[12] = tested on: Amaranthus spinosus; experiment: Herbicidal activity against Amaranthus spinosus assessed as relative growth inhibition at 900 g/ha in greenhouse by postemergence herbicidal activity assay; assay type: functional; details: post-emergence, read-out: GI
[13] = tested on: Amaranthus spinosus; experiment: Herbicidal activity against Amaranthus spinosus assessed as relative growth inhibition at 50 g/ha in greenhouse by postemergence herbicidal activity assay; assay type: functional; details: post-emergence, read-out: GI
[14] = tested on: Eclipta prostrata; experiment: Herbicidal activity against two to three-leaf stage Eclipta prostrata assessed as inhibition of plant growth at 150 g/ha in greenhouse by post-emergence herbicidal activity assay; assay type: functional; details: read-out: GI
[15] = tested on: Amaranthus blitum; experiment: Herbicidal activity against Amaranthus blitum assessed as relative growth inhibition at 300 g/ha in greenhouse by post-emergence herbicidal activity assay; assay type: functional; details: read-out: GI
[16] = tested on: Polygonum aviculare; experiment: Herbicidal activity against Polygonum aviculare assessed as relative growth inhibition at 200 g/ha in greenhouse by post-emergence herbicidal activity assay; assay type: functional; details: read-out: GI
[17] = Toxicity in orally dosed Rattus norvegicus (rat); assay type: organism-based; details: in vivo, po
[18] = tested on: Polygonum aviculare; experiment: Herbicidal activity against Polygonum aviculare assessed as relative growth inhibition at 450 g/ha in greenhouse by post-emergence herbicidal activity assay; assay type: functional; details: read-out: GI
[19] = tested on: Chenopodium album; experiment: Herbicidal activity against Chenopodium album assessed as relative growth inhibition at 300 g/ha in greenhouse by post-emergence herbicidal activity assay; assay type: functional; details: read-out: GI
[20] = tested on: Beta vulgaris; experiment: Herbicidal activity against Beta vulgaris assessed as relative growth inhibition at 900 g/ha in greenhouse by post-emergence herbicidal activity assay; assay type: functional; details: read-out: GI
[21] = tested on: Chenopodium album; experiment: Herbicidal activity against Chenopodium album assessed as relative growth inhibition at 1200 g/ha in greenhouse by post-emergence herbicidal activity assay; assay type: functional; details: read-out: GI
[22] = tested on: Amaranthus blitum; experiment: Herbicidal activity against Amaranthus blitum assessed as relative growth inhibition at 600 g/ha in greenhouse by post-emergence herbicidal activity assay; assay type: functional; details: read-out: GI
[23] = tested on: Zea mays; experiment: Herbicidal activity against Zea mays (maize) assessed as relative growth inhibition at 300 g/ha in greenhouse by postemergence herbicidal activity assay; assay type: organism-based; details: in vivo, other
[24] = tested on: Beta vulgaris; experiment: Herbicidal activity against Beta vulgaris assessed as relative growth inhibition at 1200 g/ha in greenhouse by post-emergence herbicidal activity assay; assay type: functional; details: read-out: GI
[25] = tested on: Amaranthus spinosus; experiment: Herbicidal activity against Amaranthus spinosus assessed as relative growth inhibition at 300 g/ha in greenhouse by postemergence herbicidal activity assay; assay type: functional; details: post-emergence, read-out: GI
[26] = tested on: Pisum sativum; experiment: Herbicidal activity against 2 to 3 leaf stage Pisum sativum assessed as inhibition of plant growth at 450 g/ha in greenhouse by postemergence herbicidal activity assay; assay type: functional; details: Lathyrus oleraceus, post-emergence; read-out: GI
[27] = tested on: Chenopodium album; experiment: Herbicidal activity against Chenopodium album assessed as relative growth inhibition at 600 g/ha in greenhouse by post-emergence herbicidal activity assay; assay type: functional; details: read-out: GI
[28] = tested on: Amaranthus spinosus; experiment: Herbicidal activity against Amaranthus spinosus assessed as relative growth inhibition at 100 g/ha in greenhouse by postemergence herbicidal activity assay; assay type: functional; details: post-emergence, read-out: GI
[29] = tested on: Amaranthus blitum; experiment: Herbicidal activity against Amaranthus blitum assessed as relative growth inhibition at 50 g/ha in greenhouse by post-emergence herbicidal activity assay; assay type: functional; details: read-out: GI
[30] = tested on: Amaranthus spinosus; experiment: Herbicidal activity against Amaranthus spinosus assessed as relative growth inhibition at 600 g/ha in greenhouse by postemergence herbicidal activity assay; assay type: functional; details: post-emergence, read-out: GI
[31] = tested on: Zea mays; experiment: Herbicidal activity against Zea mays (maize) assessed as relative growth inhibition at 600 g/ha in greenhouse by postemergence herbicidal activity assay; assay type: organism-based; details: in vivo, other
[32] = tested on: Polygonum aviculare; experiment: Herbicidal activity against Polygonum aviculare assessed as relative growth inhibition at 100 g/ha in greenhouse by post-emergence herbicidal activity assay; assay type: functional; details: read-out: GI
[33] = tested on: Chenopodium album; experiment: Herbicidal activity against Chenopodium album assessed as relative growth inhibition at 900 g/ha in greenhouse by post-emergence herbicidal activity assay; assay type: functional; details: read-out: GI
[34] = tested on: Brassica rapa subsp. oleifera; experiment: Herbicidal activity against two to three-leaf stage Brassica rapa subsp. oleifera assessed as inhibition of plant growth at 150 g/ha in greenhouse by postemergence herbicidal activity assay; assay type: functional; details: post-emergence, read-out: GI

COP(=O)(OC)C(OC(=O)COc1ccc(Cl)cc1Cl)c1ccco1 (centres undefined)
inhibition of growth at 1200 g/ha [1]: 100%
inhibition of growth at 300 g/ha [2]: 98%
growth inhibition (GI) [3]: 10%
inhibition of growth at 100 g/ha [4]: 100%
growth inhibition (GI) [5]: 20%
inhibition of growth at 200 g/ha [6]: 98%
growth inhibition (GI) [7]: 0%
inhibition of growth at 1200 g/ha [8]: 100%
IC50 [9]: 0.0418 µM
inhibition of growth at 450 g/ha [10]: 100%
inhibition of growth at 1200 g/ha [11]: 100%
inhibition of growth at 900 g/ha [12]: 100%
inhibition of growth at 50 g/ha [13]: 60%
inhibition of growth at 150 g/ha [14]: 90%
inhibition of growth at 300 g/ha [15]: 100%
inhibition of growth at 200 g/ha [16]: 85%
LD50 [17]: 2700 mg/kg
inhibition of growth at 450 g/ha [18]: 100%
inhibition of growth at 300 g/ha [19]: 100%
inhibition of growth at 900 g/ha [20]: 100%
inhibition of growth at 1200 g/ha [21]: 100%
inhibition of growth at 600 g/ha [22]: 100%
growth inhibition (GI) [23]: 0%
inhibition of growth at 1200 g/ha [24]: 100%
inhibition of growth at 300 g/ha [25]: 98%
inhibition of growth at 450 g/ha [26]: 90%
inhibition of growth at 600 g/ha [27]: 100%
inhibition of growth at 100 g/ha [28]: 90%
inhibition of growth at 50 g/ha [29]: 100%
inhibition of growth at 600 g/ha [30]: 100%
growth inhibition (GI) [31]: 0%
inhibition of growth at 100 g/ha [32]: 83%
inhibition of growth at 900 g/ha [33]: 100%
inhibition of growth at 150 g/ha [34]: 95%
